Measurements: the CheMixHub viscosity set

Experiment: xn = mol fraction of the nth substance listed

[Li+].[O-][Cl+3]([O-])([O-])[O-] + C1CCOC1
101 kPa, x1 = 0.07
Details | viscosity [mPa·s]
303.15 K | 0.85
308.15 K | 0.81
313.15 K | 0.78
318.15 K | 0.74
323.15 K | 0.71

CCOC(=O)c1ccccc1 + Cc1ccccc1
viscosity [mPa·s], 101 kPa
Details | 298.15 K | 303.15 K | 313.15 K
x1 = 0.0488 | – | 0.577 | 0.504
x1 = 0.1223 | – | 0.652 | 0.562
x1 = 0.1524 | 0.6845 | – | –
x1 = 0.1712 | – | 0.701 | 0.601
x1 = 0.2201 | – | 0.749 | 0.637
x1 = 0.2923 | – | 0.823 | 0.694
x1 = 0.3425 | – | 0.875 | 0.734
x1 = 0.3548 | 0.9076 | – | –
x1 = 0.4176 | – | 0.954 | 0.795
x1 = 0.4918 | – | 1.035 | 0.858
x1 = 0.5675 | – | 1.123 | 0.926
x1 = 0.63 | 1.279 | – | –
x1 = 0.6436 | – | 1.22 | 1.001
x1 = 0.7352 | 1.452 | – | –
x1 = 0.7452 | – | 1.359 | 1.109
x1 = 0.8194 | – | 1.473 | 1.198
x1 = 0.8445 | 1.655 | – | –
x1 = 0.8969 | – | 1.605 | 1.312
x2 = 0.2273 | 1.495 | – | –
x2 = 0.5945 | 0.939 | – | –
x2 = 0.8392 | 0.679 | – | –

CCCCCl + CCCCCCCCCC
298 K, 101.3 kPa
Details | viscosity [mPa·s]
x2 = 0.1032 | 0.4681
x2 = 0.202 | 0.5006
x2 = 0.3087 | 0.5437
x2 = 0.3992 | 0.5768
x2 = 0.5065 | 0.6297
x2 = 0.5992 | 0.6636
x2 = 0.6974 | 0.7109
x2 = 0.7967 | 0.7607
x2 = 0.8968 | 0.811

OC(c1ccccc1)(c1ccccc1)c1ccccc1 + CCCCCOC(C)=O
Details | viscosity [mPa·s]
298.15 K, 101 kPa, x2 = 0.5 | 1.9
